Laboratory results: PubChem BioAssay (NCI)
Where “and” joins values, the source holds several entries; their conditions need not be identical. Identical values can stand only once.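 All cell lines were grown in 96-well plates and treated with compound for 48 hours. GI50 marks 50% less growth. TGI is the concentration that stops growth completely.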

Experiments:
Experiment in all cases: NCI-60 cell line screen, 48 h
M14 melanoma = test system: M14 melanoma
CAKI-1 renal = test system: CAKI-1 renal
SNB-75 CNS = test system: SNB-75 CNS
OVCAR-5 ovarian = test system: OVCAR-5 ovarian
EKVX NSCLC = test system: EKVX NSCLC
SR leukemia = test system: SR leukemia
MCF7 breast = test system: MCF7 breast
SK-MEL-5 melanoma = test system: SK-MEL-5 melanoma
NCI/ADR-RES ovarian = test system: NCI/ADR-RES ovarian
IGROV1 ovarian = test system: IGROV1 ovarian

SMILES	GI50 (M14 melanoma)	TGI (M14 melanoma)	GI50 (CAKI-1 renal)	TGI (CAKI-1 renal)	GI50 (SNB-75 CNS)	TGI (SNB-75 CNS)	GI50 (OVCAR-5 ovarian)	TGI (OVCAR-5 ovarian)	GI50 (EKVX NSCLC)	TGI (EKVX NSCLC)	GI50 (SR leukemia)	TGI (SR leukemia)	GI50 (MCF7 breast)	TGI (MCF7 breast)	GI50 (SK-MEL-5 melanoma)	TGI (SK-MEL-5 melanoma)	GI50 (NCI/ADR-RES ovarian)	TGI (NCI/ADR-RES ovarian)	GI50 (IGROV1 ovarian)	TGI (IGROV1 ovarian)
COc1cc2nc(-c3ccc(Cl)cc3)cc(OCCCN3CCCCC3)c2cc1OC	0.412 µM	1.67 µM	0.287 µM	2.54 µM	1.98 µM	6.19 µM	1.16 µM	> 100 µM	1.47 µM	> 100 µM	0.374 µM	2.85 µM	1.55 µM	4.11 µM	1.1 µM	2.32 µM	0.898 µM	> 100 µM	0.838 µM	> 100 µM
COc1cc(N(CCC#N)CCC#N)ccc1/C(N=Nc1ccc([N+](=O)[O-])cc1)=N/NC(=O)c1cc(Br)ccc1O	44.5 µg/mL	148 µg/mL	65.9 µg/mL	> 150 µg/mL	28.4 µg/mL	83.6 µg/mL	50 µg/mL	> 150 µg/mL	42.8 µg/mL	> 150 µg/mL	44.8 µg/mL	> 150 µg/mL	42.3 µg/mL	> 150 µg/mL	26.3 µg/mL	46.9 µg/mL	40.1 µg/mL	116 µg/mL	26.6 µg/mL	121 µg/mL
CCN(CC)CCC(CNc1ccnc2cc(Cl)ccc12)c1ccc(OC)cc1 (stereo unspecified)	1.86 µM and 1.88 µM	3.61 µM and 3.73 µM	5.85 µM and 2.54 µM	23.2 µM and 15.9 µM	3.39 µM and 2.35 µM	17.3 µM and 7.84 µM	11.6 µM and 5.65 µM	32.2 µM and 38.6 µM	6.44 µM and 12.7 µM	57.7 µM and > 100 µM	2.31 µM and 2.04 µM	8.35 µM and 7.34 µM	4.98 µM and 4.5 µM	21.1 µM and 17.9 µM	1.64 µM	3.09 µM	8.66 µM and 7.57 µM	47.5 µM and 34.3 µM	10.7 µM and 4.28 µM	39.8 µM and 24.2 µM
N#CC(=C1C=CC(=NO)C=C1)c1ccccc1	1.74 µM	4.36 µM	1.23 µM	11.5 µM	2.14 µM	8.99 µM	2.53 µM	5.03 µM	5.31 µM	21.4 µM	0.349 µM	3.73 µM	0.319 µM	11.6 µM	2.01 µM	8.3 µM	1.49 µM	11.8 µM	1.3 µM	4.53 µM
CN(C)N=Nc1ccc(NC=O)cc1		> 100 µM		> 100 µM		> 100 µM		> 100 µM		> 100 µM		> 100 µM		> 100 µM		> 100 µM		> 100 µM		> 100 µM
O=C1c2cccc(NCCCNCCO)c2C(=O)c2cccc(NCCCNCCO)c21		4.3 µM and 8.78 µM			0.912 µM and 2.44 µM	2.58 µM and 6.58 µM		6.28 µM and 6.41 µM		6.24 µM and 9.38 µM	2.56 µM and 0.532 µM	6.25 µM and 7.33 µM		1.41 µM		3.31 µM and 4.4 µM		28.6 µM		8.22 µM and 9.3 µM
NC(=Nc1c([N+](=O)[O-])cnc2ccccc12)N1CCOCC1		> 100 µM		> 100 µM		> 100 µM		> 100 µM		> 100 µM		> 100 µM		> 100 µM		> 100 µM		> 100 µM		> 100 µM
COc1ccc2c(c1)CCCC(Br)C2=O (stereo unspecified)		16.5 µM		9.45 µM		27.9 µM		20.8 µM		37.2 µM		24.6 µM		15.1 µM		9.22 µM		> 29.9 µM		4.28 µM
Cn1nc(N)c2cc([C@@H]3Nc4ccc5[nH]ncc5c4[C@H]4C5CCC(C5)[C@@H]34)ccc21 (stereo partly specified)	0.372 µM	9.98 µM	0.334 µM	33.4 µM	0.152 µM	3.27 µM	1.48 µM	23.4 µM	0.732 µM	67 µM	0.426 µM	> 100 µM	0.327 µM	18.4 µM	0.363 µM	12.7 µM	0.4 µM	10 µM	0.756 µM	22.8 µM
N#Cc1c(NN)n(C2OC(CO)C(O)C2O)c2ncnc(N)c12 (stereo unspecified)	0.0532 µM	0.303 µM	0.0619 µM	0.639 µM	0.388 µM	9.56 µM	0.311 µM	14.4 µM	0.209 µM		0.0272 µM	0.0815 µM	0.0315 µM	2.87 µM	0.461 µM	3.05 µM	0.283 µM	4.17 µM	0.057 µM	0.348 µM
O=C(Nc1ccc(Cl)cc1F)c1ccccc1O	3.45 µM	16.7 µM	2.37 µM	13.6 µM	3.26 µM	> 100 µM	3.04 µM	> 100 µM	1.96 µM	12.5 µM	5.73 µM	> 100 µM	1.5 µM	12.6 µM	1.69 µM	3.48 µM	2.44 µM	7.61 µM	1.43 µM	64.3 µM
C=C(c1nc2ccc(Cl)cc2[nH]c1=O)C(O)c1ccc(C(O)C(=O)c2nc3ccc(Cl)cc3[nH]c2=O)cc1 (stereo unspecified)		> 100 µM		> 100 µM		> 100 µM		> 100 µM		> 100 µM		> 100 µM		> 100 µM		> 100 µM		> 100 µM		> 100 µM
CCn1c(-c2nonc2N)nc2c(C#CC(C)(C)O)nc(OC[C@H](N)c3ccccc3)cc21	3.94 µM	7.47 µM	3.94 µM	8.93 µM	0.926 µM	4.65 µM	5.69 µM	9.99 µM	10.8 µM	18.1 µM	6.24 µM	16.3 µM	2.92 µM	6.16 µM	4.21 µM	7.64 µM	5.31 µM	13.9 µM	2.63 µM	7.23 µM
O=C(Cc1ccc(/C=C/C(=O)c2ncc[nH]2)cc1)Nc1cc(F)c(F)c(F)c1	4.06 µM	8.36 µM	3.68 µM	7.05 µM	1.98 µM	> 25 µM	4.58 µM	8.84 µM	8.45 µM	> 25 µM	2.16 µM	13.3 µM	2.38 µM	7.76 µM	4.18 µM	8.19 µM	7.26 µM	> 25 µM	3.31 µM	9.68 µM
C=C(CNCc1ccccc1)c1ccc(C(=O)Nc2ccccc2N)cc1	29.8 µM	> 100 µM	5.35 µM	32.5 µM	38.2 µM	93 µM	14.4 µM	40.1 µM	32.5 µM	> 100 µM	3.54 µM	> 100 µM	41.1 µM	> 100 µM	4.66 µM	17.4 µM	3.21 µM	18.8 µM	3.21 µM	36.9 µM
Cc1ccc(C)c(C2=C(c3cn(C)c4ccccc34)C(=O)NC2=O)c1	> 25 µM	> 25 µM	> 23.4 µM	> 25 µM	1.15 µM	> 25 µM	> 25 µM	> 25 µM			5.05 µM	> 21 µM	6.81 µM	> 25 µM	> 25 µM	> 25 µM	> 25 µM	> 25 µM	24.8 µM	> 25 µM
C=C1C(=O)OC2CCN3CC=C(COC(=O)C(C)(O)C4(CO4)C1C)C23 (stereo unspecified)		> 100 µM		> 100 µM						> 100 µM		> 100 µM		> 100 µM		> 100 µM		> 100 µM		> 100 µM
OC[C@H]1C[C@](O)(c2ccc(Cl)cc2)[C@@H](c2ccc(Cl)cc2)O1			27 µM	79.3 µM	22.9 µM	87.7 µM	25.9 µM	71.7 µM	18.2 µM	48.2 µM	0.202 µM	16.8 µM	30 µM	72.8 µM	15.3 µM	29.3 µM	30.3 µM	87.5 µM		
Cn1cc(CO)c2c1C(=O)C=C(N1CC1)C2=O	< 0.01 µM	< 0.01 µM	< 0.01 µM	< 0.0125 µM	< 0.01 µM	0.0444 µM	0.0365 µM	4.79 µM	0.214 µM	1.15 µM	< 0.01 µM	0.0145 µM	< 0.01 µM		< 0.01 µM	< 0.01 µM	0.0291 µM	0.275 µM	< 0.0104 µM	1.8 µM
COc1ccc(CN2C(=O)/C(=C\C(=O)c3ccc(OCCN4CCCCC4)cc3)c3ccccc32)cc1	1.83 µM	3.85 µM	5.09 µM	18.1 µM	12.8 µM	27.6 µM	1.88 µM	5.94 µM	4.94 µM	19.6 µM	2.04 µM	7.4 µM	1.85 µM	4.6 µM	11 µM	23.5 µM	3.84 µM	22.5 µM	2.08 µM	4.48 µM
CS(=O)(=O)Nc1ccc2c(c1)oc(=O)c1ccccc12		> 100 µM		> 100 µM		> 100 µM		> 100 µM		> 100 µM		> 100 µM		> 100 µM		> 100 µM		> 100 µM		> 100 µM
O=C(Nc1nc2ccc(C(F)(F)F)cc2s1)c1cc(Cl)ccc1O	0.935 µM	23.9 µM			1.59 µM	7.24 µM	3.67 µM	> 100 µM	0.37 µM	39 µM	1.24 µM	20.1 µM	2.18 µM	> 100 µM	0.234 µM	0.684 µM	0.841 µM	> 100 µM	0.621 µM	> 100 µM
O=C(CNc1ccc(Cl)cc1)Nc1ccc(-c2nc3ccccc3s2)cc1	2.1 µM	5.15 µM	6.8 µM	20 µM	3.39 µM	14.8 µM	5.97 µM	13.3 µM	8.02 µM	24.5 µM	1.43 µM	> 24 µM	0.0697 µM	6.5 µM	2 µM	5.42 µM	3.42 µM	11.4 µM	5.79 µM	12.9 µM
O=C1/C(=C/c2ccc(Br)cc2)COc2ccc(O)c(O)c21	1.41 µM	3.47 µM	0.944 µM	2.25 µM	1.23 µM	3.01 µM	1.5 µM	3.04 µM	1.45 µM	3.14 µM	0.452 µM	> 100 µM	0.353 µM	1.67 µM	1.4 µM	2.84 µM	0.665 µM	> 25.8 µM	0.631 µM	2.16 µM
O=C1NC(=O)C(c2cnc3ccccn23)=C1c1cn2c3c(cc(F)cc13)CN(C(=O)N1CCCCC1)CC2	13.7 µM	36.6 µM	1.24 µM	> 37.7 µM		46.3 µM	23.5 µM	64.4 µM			1.84 µM	29.1 µM	< 0.01 µM	21.1 µM	2.81 µM	16.8 µM	19.7 µM	> 100 µM	21 µM	> 80 µM
CCN1CCN(C(c2ccc(C(F)(F)F)cc2)c2ccc3cccnc3c2O)CC1 (stereo unspecified)	1.7 µM	5.87 µM	2.55 µM	9.36 µM	1.84 µM	17 µM	2.61 µM	14.6 µM			0.835 µM	11 µM	3.46 µM	14.9 µM	2.35 µM	7.83 µM	1.77 µM	10.9 µM	2.04 µM	12.4 µM
C=COCCCOc1ccccc1		> 100 µM		> 100 µM	> 100 µM	> 100 µM		> 100 µM		> 100 µM		> 100 µM	> 100 µM	> 100 µM		> 100 µM	> 100 µM	> 100 µM		
Clc1nc2ccccc2nc1CI	3.32 µM	12.6 µM	5.65 µM	13.2 µM	9.39 µM	30.1 µM	8.26 µM	22 µM			0.638 µM		2.79 µM	11.9 µM	2.6 µM	7.82 µM	4.1 µM	18.1 µM	6.47 µM	17 µM
C=C1CC[C@@H]2[C@](C)(COC(C)=O)[C@H](OC(C)=O)CC[C@@]2(C)[C@@H]1CC(Sc1ccccc1)C1=CCOC1=O (stereo partly specified)	1.47 µM	3.69 µM	2.77 µM	11.5 µM	1.3 µM	2.9 µM	2.46 µM	4.67 µM	2.43 µM	10.4 µM	0.553 µM	3.66 µM	0.538 µM	2.35 µM	1.42 µM	2.82 µM	2.1 µM	11 µM		
